We go through five molecules from patent US20240382493A1, “METHODS FOR TREATING SYSTEMIC MASTOCYTOSIS AND GASTROINTESTINAL STROMAL TUMORS” (Blueprint Medicines Corporation, priority 2023, published 2024).

One data set in a line: clinical. The settings on record: human, in vivo, po, Tmax median treatment difference.
The conditions of data set [1]: cited from earlier work.
The conditions of data set [2]: patients with severe hepatic impairment; cited from earlier work.
Data set [3] is described as follows: Post-hoc analysis of pooled data of 343 patients: clearance by hepatic function. The format is in vivo, human. The following applies: pooled data of 343 patients (284 normal, 53 mild HI, 6 moderate HI). The source says:
As per the current avapritinib labeling, no dose adjustment is recommended for patients with mild or moderate HI.

Data set [4] is described as follows: Clinical study BLU-285-0107: single 100 mg oral dose, severe hepatic impairment vs matched control subjects, plasma PK.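 As to all read-outs here: severe hepatic impairment meant chronic stable cirrhosis with a Child-Pugh score of 10–15, and each such subject was paired one-to-one with a control of similar age, BMI and sex.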 The settings on record: single oral 100 mg; for CL/F GeoMean / AUC(0-t) / AUC(0-inf) / Cmax / Tmax / Vd/F / half-life: total plasma avapritinib; for CLu/F GeoMean / Cumax GeoMean / AUC: unbound plasma avapritinib; for AUC(0-t) / AUC(0-inf) / AUC / Cmax / Tmax / Vd/F / half-life: human, plasma, po, 100 mg; for AUC(0-inf): AUC0-∞ GeoMean; for Cmax: Cmax GeoMean; for Tmax: Tmax median; for Vd/F: Vz/F GeoMean; for half-life: t1/2 arithmetic mean.
From the text: Subjects with chronic, stable, severe HI with features of cirrhosis due to any etiology were enrolled, and the Child-Pugh scale was used to classify the severity of liver disease. The scale employs 5 clinical measures of liver disease. Each measure is scored 1 to 3, with 3 indicating most severe derangement. Subjects' scores of 10 to 15 on this scale are classified as having severe hepatic impairment.
The control subjects were matched in a 1:1 ratio to subjects with severe hepatic impairment for age, body mass index (BMI), and sex variables.

Read-outs that look alike come from different tables or passages of the source.

For orientation: Tmax means the time from dosing to the highest level. As to `Cn1cc(-c2cc3c(N4CCN(c5ncc([C@](C)(O)c6ccc(F)cc6)cn5)CC4)ncnn3c2)cn1` [Metabolite A], the time of peak concentration (Tmax) in “clinical” amounted to 14.1 h.
Still for that read-out and setting: in the case of `Cn1cc(-c2cc3c(N4CCN(c5ncc([C@@](C)(O)c6ccc(F)cc6)cn5)CC4)ncnn3c2)cn1` [Metabolite B] it was 80 h.
Consider `N#Cc1ccccc1-c1cc(-c2ccccn2)cn(-c2ccccc2)c1=O` [perampanel], for which the “AUC higher compared to normal” value in data set [1] (patients with mild HI) is listed as 50%; in data set [1] (patients with moderate HI), 2.5 fold.
For the molecule `CCOc1cc2ncc(C#N)c(Nc3ccc(OCc4ccccn4)c(Cl)c3)c2cc1NC(=O)/C=C/CN(C)C` [neratinib], in data set [2], the “exposure (AUC) increased” value was 181% and the “exposure (Cmax) increased” value is listed as 173%.
Usually AUC(0-t) stands for the area under the concentration-time curve up to a stated or last time point. As usually defined, the AUC(0-inf) is the area under the concentration-time curve extrapolated to infinity. As a reminder, the AUC is concentration integrated over time. A word on the Cmax: it is the maximum level reached in the sampled fluid or tissue. A word on the Vd/F: it is the apparent distribution volume after extravascular dosing. As a reminder, the half-life is how long it takes for the measured level to halve. Lower therefore signals rapid decline. Turning to `Cn1cc(-c2cc3c(N4CCN(c5ncc([C@@](C)(N)c6ccc(F)cc6)cn5)CC4)ncnn3c2)cn1` [Avapritinib, (S)-1-(4-fluorophenyl)-1-(2-(4-(6-(1-methyl-1H-pyrazol-4-yl)pyrrolo [2,1-f][1,2,4]triazin-4-yl)piperazin-yl)pyrimidin-5-yl)ethan-1-amine], in data set [3], the “clearance between patients with normal liver function, mild HI and moderate HI” value is given as “similar”. Also, the figures for the “CL/F GeoMean” value in data set [4] (Matched Control) and in data set [4] (Severe HI) were 15.21 L/h and 12.72 L/h, respectively. Further, the “CLu/F GeoMean” value was 1534 L/h in data set [4] (Matched Control) and 950.6 L/h in data set [4] (Severe HI). Moreover, the entries for the “Cumax GeoMean” value in data set [4] (Matched Control) and in data set [4] (Severe HI) were 1.197 ng/mL and 1.293 ng/mL, respectively. The AUC(0-t) in data set [4] (AUC0-24 GeoMean, Matched Control) is 1610 ng·h/mL; in data set [4] (AUC0-24 GeoMean, Severe HI), 1370 ng·h/mL; in data set [4] (AUC0-240 GeoMean, Matched Control) it was 6030 ng·h/mL; in data set [4] (AUC0-240 GeoMean, Severe HI), 6500 ng·h/mL. The AUC(0-inf) in data set [4] (Matched Control) was found to be 6570 ng·h/mL; in data set [4] (Severe HI), 7860 ng·h/mL. The area under the curve (AUC) in data set [4] (AUCu0-24 GeoMean, Matched Control) is 15.9 ng·h/mL; in data set [4] (AUCu0-24 GeoMean, Severe HI), 18.3 ng·h/mL; in data set [4] (AUCu0-240 GeoMean, Matched Control) it was 59.8 ng·h/mL; in data set [4] (AUCu0-240 GeoMean, Severe HI), 87 ng·h/mL; in data set [4] (AUCu0-∞ GeoMean, Matched Control) it was 65.2 ng·h/mL; in data set [4] (AUCu0-∞ GeoMean, Severe HI), 105 ng·h/mL. The values for the Cmax in data set [4] (Matched Control) and in data set [4] (Severe HI) were 121 ng/mL and 96.6 ng/mL, respectively. Moreover, the results for the Tmax in data set [4] (Matched Control) and in data set [4] (Severe HI) were 2.25 h and 1.5 h, respectively. For the same molecule, the Vd/F in data set [4] (Matched Control) came out at 1330 L; in data set [4] (Severe HI) it was 1710 L. The half-life in data set [4] (Matched Control) was 64.1 h; in data set [4] (Severe HI), 96.6 h.
